Among the data in PubChem BioAssay AID256 (DTP/NCI, 2004) are T/C values, retold here.

This test relates to CD2F1 mice, L1210 leukemia ip, survival T/C. Description: NCI In Vivo Anticancer Drug Screen. Data for tumor model L1210 Leukemia (intraperitoneal) in CD2F1 (CDF1) mice. Particulars: endpoint: mean survival time, higher = longer survival. The essentials:
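Transplantable tumor in mice; compound-treated vs vehicle-treated groups. Read-out = treated/control ratio of the measured endpoint.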

The mark [1] stands for this setting: dose: 100.0 mg/kg/injection, schedule: Q01DX009 (ip), vehicle: saline with Tween-80.
[2] abbreviates: dose: 200.0 mg/kg/injection, schedule: Q01DX009 (ip), vehicle: saline with Tween-80.
[3] abbreviates: dose: 400.0 mg/kg/injection, schedule: Q01DX009 (ip), vehicle: saline with Tween-80.

“And” between values parts separate entries of the source, which are not always exact repeats. Equal values may be shown once. Toxic doses and inconclusive results are not listed.

For `COc1cc([C@@H]2c3cc4c(cc3[C@@H](OC3OC5CO[C@@H](c6cccs6)OC5C(O)C3O)[C@H]3COC(=O)[C@H]23)OCO4)cc(OC)c1O` (stereo not given in full), the T/C runs as follows: (dose: 0.25 mg/kg/injection, schedule: Q01DX009 (ip), vehicle: saline) 115 % of control; (dose: 0.25 mg/kg/injection, schedule: Q03HX016 (ip), vehicle: saline) 152 % of control; (dose: 0.25 mg/kg/injection, schedule: Q03HX024 (ip), vehicle: saline) 169 % of control and 173 % of control; (dose: 0.5 mg/kg/injection, schedule: Q01DX009 (sc), vehicle: saline) 110 % of control; (dose: 0.5 mg/kg/injection, schedule: Q03HX008 (ip), vehicle: saline) 164 % of control; (dose: 0.5 mg/kg/injection, schedule: Q03HX016 (ip), vehicle: saline) 246 % of control. Besides, the T/C by setting is: (dose: 0.5 mg/kg/injection, schedule: Q03HX024 (ip), vehicle: saline) 256 % of control and 323 % of control; (dose: 1.0 mg/kg/injection, schedule: Q01DX005 (ip), vehicle: saline) 153 % of control; (dose: 1.0 mg/kg/injection, schedule: Q01DX009 (ip), vehicle: saline) 123 % of control and 231 % of control and 106 % of control; (dose: 1.0 mg/kg/injection, schedule: Q03HX008 (ip), vehicle: saline) 192 % of control; (dose: 1.0 mg/kg/injection, schedule: Q03HX016 (ip), vehicle: saline) 544 % of control; (dose: 1.0 mg/kg/injection, schedule: Q03HX024 (ip), vehicle: saline) 441 % of control and 514 % of control. Moreover, the T/C was 113 % of control (dose: 2.0 mg/kg/injection, schedule: Q01DX001 (sc), vehicle: saline); 204 % of control (dose: 2.0 mg/kg/injection, schedule: Q01DX005 (ip), vehicle: saline); 202 % of control and 109 % of control (dose: 2.0 mg/kg/injection, schedule: Q01DX009 (ip), vehicle: saline); 114 % of control (dose: 2.0 mg/kg/injection, schedule: Q01DX009 (oral), vehicle: saline); 166 % of control (dose: 2.0 mg/kg/injection, schedule: Q01DX009 (sc), vehicle: saline); 173 % of control (dose: 2.0 mg/kg/injection, schedule: Q03HX008 (ip), vehicle: saline). For the same compound, the T/C (dose: 2.0 mg/kg/injection, schedule: Q03HX016 (ip), vehicle: saline) was 313 % of control; the T/C (dose: 2.0 mg/kg/injection, schedule: Q03HX024 (ip), vehicle: saline) was 89 % of control; the T/C (dose: 4.0 mg/kg/injection, schedule: Q01DX001 (ip), vehicle: saline) was 158 % of control; the T/C (dose: 4.0 mg/kg/injection, schedule: Q01DX001 (sc), vehicle: saline) was 123 % of control; the T/C (dose: 4.0 mg/kg/injection, schedule: Q01DX005 (ip), vehicle: saline) was 87 % of control; the T/C (dose: 4.0 mg/kg/injection, schedule: Q01DX009 (ip), vehicle: saline) was 210 % of control and 112 % of control. Moreover, the T/C reads like this: (dose: 4.0 mg/kg/injection, schedule: Q01DX009 (sc), vehicle: saline) 102 % of control; (dose: 4.0 mg/kg/injection, schedule: Q04DX003 (ip), vehicle: saline) 209 % of control; (dose: 4.0 mg/kg/injection, schedule: Q08DX002 (ip), vehicle: saline) 164 % of control; (dose: 8.0 mg/kg/injection, schedule: Q01DX001 (ip), vehicle: saline) 239 % of control; (dose: 8.0 mg/kg/injection, schedule: Q01DX001 (oral), vehicle: saline) 122 % of control; (dose: 8.0 mg/kg/injection, schedule: Q01DX009 (oral), vehicle: saline) 102 % of control. The T/C is, setting by setting: (dose: 8.0 mg/kg/injection, schedule: Q04DX003 (ip), vehicle: saline) 169 % of control and 251 % of control; (dose: 8.0 mg/kg/injection, schedule: Q08DX002 (ip), vehicle: saline) 346 % of control; (dose: 16.0 mg/kg/injection, schedule: Q01DX001 (ip), vehicle: saline) 254 % of control; (dose: 16.0 mg/kg/injection, schedule: Q01DX001 (sc), vehicle: saline) 153 % of control; (dose: 32.0 mg/kg/injection, schedule: Q01DX001 (ip), vehicle: saline) 87 % of control; (dose: 32.0 mg/kg/injection, schedule: Q01DX001 (sc), vehicle: saline) 156 % of control. In addition, the T/C by setting is: (dose: 32.0 mg/kg/injection, schedule: Q04DX003 (ip), vehicle: saline) 454 % of control; (dose: 32.0 mg/kg/injection, schedule: Q08DX002 (ip), vehicle: saline) 114 % of control.

Consider `NC(=S)N/N=C/c1ccc(OC(F)(F)F)cn1`, for which the T/C (dose: 1.56 mg/kg/injection, schedule: Q01DX009 (ip), vehicle: other) was 104 % of control; the T/C (dose: 3.13 mg/kg/injection, schedule: Q01DX009 (ip), vehicle: other) was 100 % of control; the T/C (dose: 6.25 mg/kg/injection, schedule: Q01DX009 (ip), vehicle: other) was 108 % of control; the T/C (dose: 12.5 mg/kg/injection, schedule: Q01DX009 (ip), vehicle: other) was 118 % of control; the T/C (dose: 25.0 mg/kg/injection, schedule: Q04DX002 (ip), vehicle: other) was 89 % of control; the T/C (dose: 50.0 mg/kg/injection, schedule: Q04DX002 (ip), vehicle: other) was 104 % of control. Further, the T/C (dose: 100.0 mg/kg/injection, schedule: Q04DX002 (ip), vehicle: other) was 115 % of control.

For the compound `CCOC(=O)C12CCC(C1=O)C(C)(O)CC2` (stereo not given), the T/C is, setting by setting: (dose: 50.0 mg/kg/injection, schedule: Q01DX009 (ip), vehicle: acetone) 92 % of control; (dose: 100.0 mg/kg/injection, schedule: Q01DX009 (ip), vehicle: acetone) 90 % of control; (dose: 200.0 mg/kg/injection, schedule: Q01DX009 (ip), vehicle: acetone) 94 % of control.

For `FC(F)(F)c1ccc2c(c1)N(CCCN1CCN(CCC3OCCCO3)CC1)c1ccccc1S2`, the T/C is 96 % of control (dose: 0.78 mg/kg/injection, schedule: Q01DX009 (ip), vehicle: saline); 96 % of control (dose: 1.56 mg/kg/injection, schedule: Q01DX009 (ip), vehicle: saline); 94 % of control (dose: 3.12 mg/kg/injection, schedule: Q01DX009 (ip), vehicle: saline); 96 % of control (dose: 6.25 mg/kg/injection, schedule: Q01DX009 (ip), vehicle: saline); 103 % of control (dose: 12.5 mg/kg/injection, schedule: Q01DX009 (ip), vehicle: saline).

With `CCCCCCCCCCCCCCCCC(C)(O)C#CC(C)(O)CCCCCCCCCCCCCCCC` (stereo not given), the T/C is, setting by setting: (dose: 100.0 mg/kg/injection, schedule: Q01DX005 (ip), vehicle: other) 97 % of control; (dose: 200.0 mg/kg/injection, schedule: Q01DX005 (ip), vehicle: other) 97 % of control; (dose: 400.0 mg/kg/injection, schedule: Q01DX005 (ip), vehicle: other) 101 % of control.

Turning to `CN(C)CC(=O)Nc1cc(Cl)ccc1Oc1ccc(Cl)cc1`, the T/C by setting is: under setting [1], 103 % of control; under setting [2], 100 % of control; under setting [3], 105 % of control.

For `O=C(O)C1CC[N-]CC1.O=C(O)C1CC[N-]CC1.O=C(O)C1CC[N-]CC1.O=C(O)C1CC[N-]CC1.[Cl][Rh][Cl]`, the T/C reads like this: (dose: 66.0 mg/kg/injection, schedule: Q01DX009 (ip), vehicle: saline) 112 % of control; (dose: 100.0 mg/kg/injection, schedule: Q01DX009 (ip), vehicle: saline) 110 % of control.

For `Nc1cccc(=O)[nH]1`, the T/C was 96 % of control (dose: 12.5 mg/kg/injection, schedule: Q01DX009 (ip), vehicle: suspension in saline); 96 % of control and 104 % of control (dose: 25.0 mg/kg/injection, schedule: Q01DX009 (ip), vehicle: suspension in saline); 95 % of control and 96 % of control (dose: 50.0 mg/kg/injection, schedule: Q01DX009 (ip), vehicle: suspension in saline); 90 % of control and 96 % of control (dose: 100.0 mg/kg/injection, schedule: Q01DX009 (ip), vehicle: suspension in saline); 102 % of control and 107 % of control (dose: 200.0 mg/kg/injection, schedule: Q01DX009 (ip), vehicle: suspension in saline); 104 % of control (dose: 400.0 mg/kg/injection, schedule: Q01DX009 (ip), vehicle: suspension in saline).

In the case of `CCCOC(=O)OCCC`, the T/C by setting is: (dose: 25.0 mg/kg/injection, schedule: Q04DX003 (ip), vehicle: saline with Tween-80) 102 % of control; (dose: 50.0 mg/kg/injection, schedule: Q04DX003 (ip), vehicle: saline with Tween-80) 96 % of control; under setting [1], 97 % of control; (dose: 100.0 mg/kg/injection, schedule: Q04DX003 (ip), vehicle: saline with Tween-80) 94 % of control; under setting [2], 95 % of control; (dose: 200.0 mg/kg/injection, schedule: Q04DX003 (ip), vehicle: saline with Tween-80) 94 % of control. Further, the T/C under setting [3] was 104 % of control and the T/C (dose: 400.0 mg/kg/injection, schedule: Q04DX003 (ip), vehicle: saline with Tween-80) was 96 % of control.
